Calls of active or inactive are those of the source. The calls are words filed in the database; no cut-off is given here.
Tests used:
Homo sapiens [1] = species on record: Homo sapiens; assay: Skin stripping in human by stripped-skin assay relative to betamethasone valerate; type: functional, organism-based
Homo sapiens [2] = species on record: Homo sapiens; assay: Vasoconstrictor activity in human relative to betamethasone valerate; type: functional, organism-based

CO[C@@H]1C[C@H]2[C@@H]3CCC4=CC(=O)CC[C@]4(C)[C@@]3(F)[C@@H](O)C[C@]2(C)[C@@]1(OC(C)=O)C(=O)CCl
Activity (Homo sapiens [1]): inactive | Activity (Homo sapiens [2]): inactive

CCC(=O)O[C@]1(C(=O)CCl)[C@H](OC(C)=O)C[C@H]2[C@@H]3CCC4=CC(=O)C=C[C@]4(C)[C@@]3(F)[C@@H](O)C[C@@]21C
Activity (Homo sapiens [1]): inactive | Activity (Homo sapiens [2]): inactive

CCO[C@@H]1C[C@H]2[C@@H]3CCC4=CC(=O)CC[C@]4(C)[C@@]3(F)[C@@H](O)C[C@]2(C)[C@@]1(OC(C)=O)C(=O)CCl
Activity (Homo sapiens [1]): inactive | Activity (Homo sapiens [2]): inactive

CC(=O)O[C@@H]1C[C@H]2[C@@H]3CCC4=CC(=O)C=C[C@]4(C)[C@@]3(F)[C@@H](O)C[C@]2(C)[C@@]1(OC(C)=O)C(=O)CCl
Activity (Homo sapiens [1]): inactive | Activity (Homo sapiens [2]): inactive

CCCCC(=O)O[C@]1(C(=O)CCl)[C@H](OC)C[C@H]2[C@@H]3CCC4=CC(=O)CC[C@]4(C)[C@@]3(F)[C@@H](O)C[C@@]21C
Activity (Homo sapiens [1]): inactive | Activity (Homo sapiens [2]): inactive

— ChEMBL document CHEMBL3272178, “Prepartion of 16alpha-alkoxy and 16alpha-acyloxy derivatives of 21-chloro-17-acyloxy corticosteroids and determination of their vasoconstrictor activities in humans” (J Med Chem, 1976)
